System: MV-4-11 cells
Assay: Gene expression microarray analysis (Affymetrix PrimeView) and GSEA
Type: cell-based, human
Parameters: RFU PODN (11730768_x_at) / Fold change /veh PODN (11730768_x_at) / RFU LINC00158 (11744669_a_at) / Fold change /veh LINC00158 (11744669_a_at) / RFU DUSP10 (11751237_a_at) / Fold change /veh DUSP10 (11751237_a_at) / RFU ID3 (11757404_x_at) / Fold change /veh ID3 (11757404_x_at) / RFU PLEKHG5 (11737974_s_at) / Fold change /veh PLEKHG5 (11737974_s_at) / RFU LRRC4B (11730491_at) / Fold change /veh LRRC4B (11730491_at) / RFU GIMAP4 (11747438_a_at) / Fold change /veh GIMAP4 (11747438_a_at) / RFU KRT8 (11758183_x_at) / Fold change /veh KRT8 (11758183_x_at) / RFU CNN1 (11734310_a_at) / Fold change /veh CNN1 (11734310_a_at) / RFU VPS37D (11726825_at) / Fold change /veh VPS37D (11726825_at) / RFU C10orf10 (11716522_x_at) / Fold change /veh C10orf10 (11716522_x_at) / RFU KIR2DL2 /// KIR2DL4 /// KIR2DL5A /// KIR2DL5B /// KIR2DS1 /// KIR2DS2 /// KIR2DS3 /// KIR2DS4 /// KIR3DL3 /// KIR3DL3 /// KIR3DS1 (11738374_at) / Fold change /veh KIR2DL2 /// KIR2DL4 /// KIR2DL5A /// KIR2DL5B /// KIR2DS1 /// KIR2DS2 /// KIR2DS3 /// KIR2DS4 /// KIR3DL3 /// KIR3DL3 /// KIR3DS1 (11738374_at) / RFU C1QL1 (11718748_at) / Fold change /veh C1QL1 (11718748_at) / RFU TMPRSS4 (11747572_a_at) / Fold change /veh TMPRSS4 (11747572_a_at) / RFU HAMP (11756126_x_at) / Fold change /veh HAMP (11756126_x_at) / RFU RNFT2 (11725882_a_at) / Fold change /veh RNFT2 (11725882_a_at) / RFU NR4A2 (11747474_a_at) / Fold change /veh NR4A2 (11747474_a_at) / RFU ABCC12 (11746883_a_at) / Fold change /veh ABCC12 (11746883_a_at) / RFU TMEM136 (11760407_x_at) / Fold change /veh TMEM136 (11760407_x_at) / RFU CLDN22 /// WWC2 (11732394_at) / Fold change /veh CLDN22 /// WWC2 (11732394_at) / RFU HLA-DPB1 (11760878_x_at) / Fold change /veh HLA-DPB1 (11760878_x_at) / RFU SPINT1 (11716480_a_at) / Fold change /veh SPINT1 (11716480_a_at) / RFU GAP43 (11754022_s_at) / Fold change /veh GAP43 (11754022_s_at) / RFU A4GNT (11735810_at) / Fold change /veh A4GNT (11735810_at) / RFU PRB3 (11715151_x_at) / Fold change /veh PRB3 (11715151_x_at) / RFU TUBB4B (11761932_at) / Fold change /veh TUBB4B (11761932_at) / RFU CAPN14 (11732068_a_at) / Fold change /veh CAPN14 (11732068_a_at) / RFU TMCC2 (11721928_a_at) / Fold change /veh TMCC2 (11721928_a_at) / RFU IRGQ (11745062_a_at) / Fold change /veh IRGQ (11745062_a_at) / RFU FAM174B (11720279_a_at) / Fold change /veh FAM174B (11720279_a_at) / RFU TMPRSS4 (11748680_a_at) / Fold change /veh TMPRSS4 (11748680_a_at) / RFU FAM212B (11763350_a_at) / Fold change /veh FAM212B (11763350_a_at) / RFU PLEKHG5 (11743358_a_at) / Fold change /veh PLEKHG5 (11743358_a_at) / RFU ZSCAN30 (11745921_a_at) / Fold change /veh ZSCAN30 (11745921_a_at) / RFU CMKLR1 (11741424_a_at) / Fold change /veh CMKLR1 (11741424_a_at) / RFU LOC101060620 /// MAPK8IP1 (11723275_at) / Fold change /veh LOC101060620 /// MAPK8IP1 (11723275_at) / RFU SPTSSB (11747773_x_at) / Fold change /veh SPTSSB (11747773_x_at) / RFU PRSS12 (11739890_at) / Fold change /veh PRSS12 (11739890_at) / RFU BIN1 (11741810_x_at) / Fold change /veh BIN1 (11741810_x_at) / RFU WNT11 (11732464_a_at) / Fold change /veh WNT11 (11732464_a_at) / RFU C10orf10 (11716521_a_at) / Fold change /veh C10orf10 (11716521_a_at) / RFU C5orf56 (11738089_at) / Fold change /veh C5orf56 (11738089_at) / RFU CYB561 (11721691_x_at) / Fold change /veh CYB561 (11721691_x_at) / RFU ANKRD19P (11752326_a_at) / Fold change /veh ANKRD19P (11752326_a_at) / RFU OR2T12 /// OR2T33 /// OR2T8 (11738714_s_at) / Fold change /veh OR2T12 /// OR2T33 /// OR2T8 (11738714_s_at) / RFU VCAN (11748164_a_at) / Fold change /veh VCAN (11748164_a_at) / RFU JSRP1 (11732532_at) / Fold change /veh JSRP1 (11732532_at) / RFU KRTAP10-11 (11738290_x_at) / Fold change /veh KRTAP10-11 (11738290_x_at) / RFU MYO3A (11730013_a_at) / Fold change /veh MYO3A (11730013_a_at) / RFU EBF3 (11725865_a_at) / Fold change /veh EBF3 (11725865_a_at) / RFU CAMK2N1 (11719241_x_at) / Fold change /veh CAMK2N1 (11719241_x_at) / RFU C5orf56 (11738088_a_at) / Fold change /veh C5orf56 (11738088_a_at) / RFU OLFML3 (11715873_a_at) / Fold change /veh OLFML3 (11715873_a_at) / RFU LOC100653217 /// NTM (11731650_a_at) / Fold change /veh LOC100653217 /// NTM (11731650_a_at) / RFU MAPK11 (11762145_a_at) / Fold change /veh MAPK11 (11762145_a_at) / RFU FIZ1 (11724087_x_at) / Fold change /veh FIZ1 (11724087_x_at) / RFU OASL (11726364_x_at) / Fold change /veh OASL (11726364_x_at) / RFU SOX15 (11748057_x_at) / Fold change /veh SOX15 (11748057_x_at) / RFU CD79A (11719716_a_at) / Fold change /veh CD79A (11719716_a_at) / RFU HIST1H1D (11736915_at) / Fold change /veh HIST1H1D (11736915_at) / RFU CASKIN2 (11723855_a_at) / Fold change /veh CASKIN2 (11723855_a_at) / RFU LOC730098 (11760151_x_at) / Fold change /veh LOC730098 (11760151_x_at) / RFU OR4N2 (11742367_at) / Fold change /veh OR4N2 (11742367_at) / RFU PRRT2 (11749266_a_at) / Fold change /veh PRRT2 (11749266_a_at) / RFU SNX32 (11753110_a_at) / Fold change /veh SNX32 (11753110_a_at) / RFU CDHR5 (11726645_a_at) / Fold change /veh CDHR5 (11726645_a_at) / RFU RCAN1 (11760418_a_at) / Fold change /veh RCAN1 (11760418_a_at) / RFU FAM167A (11723789_a_at) / Fold change /veh FAM167A (11723789_a_at) / RFU FAM26E (11764081_at) / Fold change /veh FAM26E (11764081_at) / RFU ISYNA1 (11749810_s_at) / Fold change /veh ISYNA1 (11749810_s_at) / RFU ACY1 (11761880_at) / Fold change /veh ACY1 (11761880_at) / RFU 11764098_at / Fold change /veh 11764098_at / RFU SAMD14 (11745864_x_at) / Fold change /veh SAMD14 (11745864_x_at) / RFU NPB (11741838_a_at) / Fold change /veh NPB (11741838_a_at) / RFU TMPRSS6 (11731388_a_at) / Fold change /veh TMPRSS6 (11731388_a_at) / RFU KRTAP10-2 (11738614_at) / Fold change /veh KRTAP10-2 (11738614_at) / RFU ARHGAP8 /// PRR5-ARHGAP8 (11727945_x_at) / Fold change /veh ARHGAP8 /// PRR5-ARHGAP8 (11727945_x_at) / RFU KRTAP5-7 /// NADSYN1 (11734609_at) / Fold change /veh KRTAP5-7 /// NADSYN1 (11734609_at) / RFU RASL12 (11751679_a_at) / Fold change /veh RASL12 (11751679_a_at) / RFU CDKN2B (11736163_a_at) / Fold change /veh CDKN2B (11736163_a_at) / RFU PRF1 (11729649_at) / Fold change /veh PRF1 (11729649_at) / RFU, ZNF638 /// ZNF638-IT1 / Fold change vs veh, ZNF638 /// ZNF638-IT1 / RFU, PANK3 / Fold change vs veh, PANK3 / RFU, SH3YL1 / Fold change vs veh, SH3YL1 / RFU, ZEB2 / Fold change vs veh, ZEB2 / RFU, NRIP1 / Fold change vs veh, NRIP1 / RFU, PTTG1IP / Fold change vs veh, PTTG1IP / RFU, CAPN2 / Fold change vs veh, CAPN2 / RFU, MED14 / Fold change vs veh, MED14 / RFU, SNORA58 / Fold change vs veh, SNORA58 / RFU, C1orf63 / Fold change vs veh, C1orf63 / RFU, LRRFIP1 / Fold change vs veh, LRRFIP1 / RFU, NDUFAF7 / Fold change vs veh, NDUFAF7 / RFU, SLC12A2 / Fold change vs veh, SLC12A2 / RFU, IBTK / Fold change vs veh, IBTK / RFU, ESF1 / Fold change vs veh, ESF1 / Fold change vs veh, TMEM50B / RFU, TAOK1 / Fold change vs veh, TAOK1 / RFU, ACBD3 / Fold change vs veh, ACBD3 / RFU, TMA16 / Fold change vs veh, TMA16 / RFU, RWDD3 / Fold change vs veh, RWDD3 / RFU, BCAT1 / Fold change vs veh, BCAT1 / RFU, EDEM3 / Fold change vs veh, EDEM3 / RFU, TMEM33 / Fold change vs veh, TMEM33 / RFU, WDR75 / Fold change vs veh, WDR75 / RFU, AHCTF1 / Fold change vs veh, AHCTF1 / RFU, TFRC / Fold change vs veh, TFRC / RFU, ZDHHC17 / Fold change vs veh, ZDHHC17 / RFU, NOM1 / Fold change vs veh, NOM1 / RFU, ARL8B / Fold change vs veh, ARL8B / RFU, ZBTB11 / Fold change vs veh, ZBTB11 / RFU, TAMM41 / Fold change vs veh, TAMM41 / RFU, KIAA1704 /// LOC100996395 / Fold change vs veh, KIAA1704 /// LOC100996395 / RFU, ING1 / Fold change vs veh, ING1 / RFU, TRMT61B / Fold change vs veh, TRMT61B / RFU, FUBP3 / Fold change vs veh, FUBP3 / RFU, TP53 / Fold change vs veh, TP53 / RFU, TNKS2 / Fold change vs veh, TNKS2 / RFU, ZFP14 / Fold change vs veh, ZFP14 / RFU, ACTR2 / Fold change vs veh, ACTR2 / RFU, PPP3R1 / Fold change vs veh, PPP3R1 / RFU, PIK3R1 / Fold change vs veh, PIK3R1 / RFU, HNRNPA1 / Fold change vs veh, HNRNPA1 / RFU, RNF170 / Fold change vs veh, RNF170 / RFU, ZNF28 / Fold change vs veh, ZNF28 / RFU, RNGTT / Fold change vs veh, RNGTT / RFU, OGT / Fold change vs veh, OGT / RFU, BRD1 / Fold change vs veh, BRD1 / RFU, MARS / Fold change vs veh, MARS / RFU, ZNF655 / Fold change vs veh, ZNF655 / RFU, FAHD1 / Fold change vs veh, FAHD1 / RFU, BDP1 / Fold change vs veh, BDP1 / RFU, LRRCC1 / Fold change vs veh, LRRCC1 / RFU, ARID1A / Fold change vs veh, ARID1A / RFU, ZNF146 / Fold change vs veh, ZNF146 / RFU, ZNF330 / Fold change vs veh, ZNF330 / RFU, GPN3 / Fold change vs veh, GPN3 / RFU, C9orf123 / Fold change vs veh, C9orf123 / RFU, N4BP2L2 / Fold change vs veh, N4BP2L2 / RFU, ARFIP1 / Fold change vs veh, ARFIP1 / RFU, FAM179B / Fold change vs veh, FAM179B / RFU, BCL10 / Fold change vs veh, BCL10 / RFU, UHRF1BP1L / Fold change vs veh, UHRF1BP1L / RFU, BET1 / Fold change vs veh, BET1 / RFU, CNOT2 / Fold change vs veh, CNOT2 / RFU, ZNF268 / Fold change vs veh, ZNF268 / Fold change vs veh, ZNF507 / RFU, DGCR2 / Fold change vs veh, DGCR2 / RFU, WDSUB1 / Fold change vs veh, WDSUB1 / Fold change vs veh, HSP90B1 /// MIR3652 / RFU, ADSS / Fold change vs veh, ADSS / RFU, GK / Fold change vs veh, GK / RFU, ZNF148 / Fold change vs veh, ZNF148 / RFU, TAF9 / Fold change vs veh, TAF9 / RFU, SLC1A5 / Fold change vs veh, SLC1A5 / RFU, SLMO2 / Fold change vs veh, SLMO2 / RFU, ABCC4 / Fold change vs veh, ABCC4 / RFU, LOC101060439 /// RAP1B / Fold change vs veh, LOC101060439 /// RAP1B / RFU, RFX7 / Fold change vs veh, RFX7 / RFU, GTPBP10 / Fold change vs veh, GTPBP10 / RFU, CNEP1R1 / Fold change vs veh, CNEP1R1 / RFU, BIVM-ERCC5 /// ERCC5 / Fold change vs veh, BIVM-ERCC5 /// ERCC5 / RFU, ILF3 / Fold change vs veh, ILF3 / RFU 11762660_at / Fold change /veh 11762660_at / RFU VCAN (11757783_s_at) / Fold change /veh VCAN (11757783_s_at) / RFU DDX43 (11728927_at) / Fold change /veh DDX43 (11728927_at) / RFU KRT8 (11758188_x_at) / Fold change /veh KRT8 (11758188_x_at) / RFU NKD1 (11759106_at) / Fold change /veh NKD1 (11759106_at) / RFU SRD5A1 (11742802_a_at) / Fold change /veh SRD5A1 (11742802_a_at) / RFU TPSAB1 /// TPSB2 (11721975_s_at) / Fold change /veh TPSAB1 /// TPSB2 (11721975_s_at) / RFU GSTM3 (11746129_a_at) / Fold change /veh GSTM3 (11746129_a_at) / RFU IL23R (11737362_x_at) / Fold change /veh IL23R (11737362_x_at) / RFU TMEM51 (11727254_a_at) / Fold change /veh TMEM51 (11727254_a_at) / RFU PIWIL2 (11732686_x_at) / Fold change /veh PIWIL2 (11732686_x_at) / RFU ORM1 (11744905_x_at) / Fold change /veh ORM1 (11744905_x_at) / RFU CCDC152 (11743942_at) / Fold change /veh CCDC152 (11743942_at) / RFU ECM1 (11717891_a_at) / Fold change /veh ECM1 (11717891_a_at) / RFU IL23R (11748794_a_at) / Fold change /veh IL23R (11748794_a_at) / RFU TNFAIP8L3 (11732012_x_at) / Fold change /veh TNFAIP8L3 (11732012_x_at) / RFU MBOAT4 (11741988_at) / Fold change /veh MBOAT4 (11741988_at) / RFU 11764193_at / Fold change /veh 11764193_at / RFU TMEM53 (11763286_at) / Fold change /veh TMEM53 (11763286_at) / RFU MAGEB2 (11727129_at) / Fold change /veh MAGEB2 (11727129_at) / RFU TMEM200A (11744735_a_at) / Fold change /veh TMEM200A (11744735_a_at) / RFU CCDC152 (11751479_a_at) / Fold change /veh CCDC152 (11751479_a_at) / RFU FAM211A (11726209_a_at) / Fold change /veh FAM211A (11726209_a_at) / RFU RGS16 (11746705_a_at) / Fold change /veh RGS16 (11746705_a_at) / RFU VCAN (11755009_s_at) / Fold change /veh VCAN (11755009_s_at) / RFU RHOB (11743442_s_at) / Fold change /veh RHOB (11743442_s_at) / RFU RGS16 (11720943_a_at) / Fold change /veh RGS16 (11720943_a_at) / RFU RGS16 (11720944_at) / Fold change /veh RGS16 (11720944_at) / RFU, VPS4B / Fold change vs veh, VPS4B / RFU, CREB1 / Fold change vs veh, CREB1 / RFU, DNAJC13 / Fold change vs veh, DNAJC13 / RFU, GNAQ / Fold change vs veh, GNAQ / RFU, CDK5R1 / Fold change vs veh, CDK5R1 / RFU, ZRANB3 / Fold change vs veh, ZRANB3 / RFU, CUL4A / Fold change vs veh, CUL4A / RFU, CCNY / Fold change vs veh, CCNY / RFU, UFL1 / Fold change vs veh, UFL1 / RFU, COG3 / Fold change vs veh, COG3 / RFU, DIAPH2 / Fold change vs veh, DIAPH2 / RFU, SKA2 / Fold change vs veh, SKA2 / RFU, AFF3 / Fold change vs veh, AFF3 / RFU, LMF1 / Fold change vs veh, LMF1 / RFU, IPO11 / Fold change vs veh, IPO11 / RFU, DFFB / Fold change vs veh, DFFB / RFU, FOXP1 / Fold change vs veh, FOXP1 / RFU, CARD8 / Fold change vs veh, CARD8 / RFU, STRN3 / Fold change vs veh, STRN3 / RFU, ADK / Fold change vs veh, ADK / RFU, RASSF2 / Fold change vs veh, RASSF2 / RFU, WIPF1 / Fold change vs veh, WIPF1 / RFU, LARP1B / Fold change vs veh, LARP1B / RFU, RASA1 / Fold change vs veh, RASA1 / RFU, RB1 / Fold change vs veh, RB1 / RFU, PPFIA1 / Fold change vs veh, PPFIA1 / RFU, MAT2A / Fold change vs veh, MAT2A / RFU, CCT5 / Fold change vs veh, CCT5 / RFU, WDR92 / Fold change vs veh, WDR92 / RFU, CUX1 / Fold change vs veh, CUX1 / RFU, TTC7A / Fold change vs veh, TTC7A / RFU, TMEM135 / Fold change vs veh, TMEM135 / RFU, DEPTOR / Fold change vs veh, DEPTOR / RFU, CPM / Fold change vs veh, CPM / RFU, DNAJB6 / Fold change vs veh, DNAJB6 / RFU, CACNA2D3 / Fold change vs veh, CACNA2D3 / RFU, DTX4 / Fold change vs veh, DTX4 / RFU, TFCP2 / Fold change vs veh, TFCP2 / RFU, GMCL1 /// GMCL1P1 / Fold change vs veh, GMCL1 /// GMCL1P1 / RFU, AEBP2 / Fold change vs veh, AEBP2 / RFU, SNHG1 /// SNORD22 /// SNORD25 /// SNORD26 /// SNORD27 /// SNORD28 /// SNORD29 /// SNORD31 / Fold change vs veh, SNHG1 /// SNORD22 /// SNORD25 /// SNORD26 /// SNORD27 /// SNORD28 /// SNORD29 /// SNORD31 / Fold change (Aza/veh), C12orf56 (ProbeSet 11735607_a_at) / Fold change (ACY-1035/veh), C12orf56 (ProbeSet 11735607_a_at) / Fold change (Aza/veh), FGFR1OP (ProbeSet 11751329_s_at) / Fold change (ACY-1035/veh), FGFR1OP (ProbeSet 11751329_s_at) / Fold change (Aza/veh), VPS36 (ProbeSet 11739960_a_at) / Fold change (ACY-1035/veh), VPS36 (ProbeSet 11739960_a_at) / RFU SYPL1 (11715823_x_at) / Fold change /veh SYPL1 (11715823_x_at) / RFU IGFBP7 (11715501_s_at) / Fold change /veh IGFBP7 (11715501_s_at) / RFU REEP3 (11722064_at) / Fold change /veh REEP3 (11722064_at) / RFU IGLL1 (11728026_x_at) / Fold change /veh IGLL1 (11728026_x_at): dose or concentration left out as unconfirmed
Conditions: MV-4-11 cells, 48 hours

## Nc1ccc(-c2cccs2)cc1NC(=O)c1ccc2c(c1)cc(C1CC1)n2CCN1CCOCC1 [ACY-1035]
  Fold change /veh MAGEB2 (11727129_at): 0.99
